pIC50: −log10 of the molar value. Read-outs that look alike come from different tables or passages of the source.
How the values were obtained:
[1] = In vitro stability in human whole blood; type: in vitro ADME; conditions: male, whole blood diluted to 50% with PBS, 37° C.
Text: Materials: The following reagents were used as received: acetonitrile (HPLC grade, Burdick & Jackson, Madison, Wis.), phosphate buffered saline (PBS), pH 7.4 (Sigma-Aldrich, Co., St. Louis, Mo.), water (HPLC grade, JT Baker, Phillipsburg, N.J.), DMSO (EM Science, Merck KGaA, Darmstadt, Germany) and isopropanol (IPA, reagent grade, EMD Chemicals, Gibbstown, N.J.). Propantheline and esmolol (Sigma-Aldrich) were used as the positive control compounds in the assay. Diazepam (Sigma-Aldrich) was used as an internal standard for quantitation. Human whole blood was obtained from BioIVT (Westbury, N.Y.) […]. All other reagents and solvents were of the highest analytical grade supplied by Sigma (St. Louis, Mo.) and were used as received.
Blood Incubations: The in vitro stability of representative KRas G12C inhibitor compounds of the present invention in the presence whole blood was conducted in the following manner. Esmolol or propantheline, which are known to undergo ester hydrolysis by esterases in blood and plasma, were used as the positive controls in the assays. A 10 mM stock solution of propantheline, esmolol, or a compound of the present invention in DMSO was diluted to 500 μM with DMSO. Aliquots of whole blood (600 μL), in triplicate, were placed in the appropriate wells of a polypropylene 96-deep well plate (Axygen Scientific, Union City, Calif.). The blood was diluted to 50% using PBS, pH 7.4 (600 μL). The diluted blood was pre-incubated for 15 minutes at 37° C. Each well was dosed with 12 μL of the 500 μM DMSO stock simultaneously for a final test concentration of 5 μM. The plates were mixed at 600 rpm for 10 seconds on a plate shaker (IKA MTS 2/4 Digital Microtiter Shaker, VWR). Aliquots of 100 μL from each well of whole blood were transferred to three separate 96-deep well plates labeled 0, 60, or 240 minutes. At the end of each designated time point, the red blood cells were lysed with 100 μL of water, mixed at 600 rpm for one minute, and stopped with 800 μL of acetonitrile containing IS (0.625 μM diazepam). The plates were mixed on the plate shaker at 600 rpm for one minute and spun in a centrifuge at 2095×g for 7 minutes at room temperature using an Allegra benchtop centrifuge (Beckman Coulter, Fullerton, Calif.). Supernatant (100 μL) was transferred to a shallow 96-well plate (Costar) using a liquid sample handling system (Apricot, Perkin-Elmer, Boston, Mass.). The addition of 100 μL of water was added to each sample of supernatant for a final volume of 200 μL. The plates were sealed and the contents of each well were analyzed by LC-MS/MS.
Analytical quantitation: The LC-MS/MS system was comprised of an HTS-PAL autosampler (Leap Technologies, Carrboro, N.C.), an HP1200 HPLC (Agilent, Palo Alto, Calif.), and an API4000 triple quadrupole mass spectrometer (PE Sciex, a division of Applied Biosystems, Foster City, Calif.). […] The total run time, including re-equilibration, for a single injection was 2 minutes. Mass spectrometric detection of the analytes was accomplished using the ESI ionization mode. Ion current was optimized during infusion of a stock solution of propantheline, esmolol, or the representative test compound. Analyte responses, including the IS were measured by multiple reaction monitoring (MRM) of transitions unique to each compound.
Calculations: Data were acquired and peak areas were calculated for test compounds and the internal standard using Analyst 1.6.2 software (Sciex). The mean peak area ratios were calculated by averaging the peak area ratios (n=3) of each test compound and the IS for each sample.
Peak area tables were exported to BioAssay Enterprise (CambridgeSoft, Cambridge, Mass.), where the average analyte-to-internal standard peak area ratios were used to calculate percent remaining (% REM) and half-life (t1/2). Percent remaining (f) was calculated by determining the ratio of the peak area ratio at each time point to the peak area ratio of the time-zero samples. […]

KRas G12C = KRas G12C (Homo sapiens, UniProt P01116, G12C); assay: Cellular inhibition of KRas G12C measured by Phospho-ERK in NCI-H358 cells; type: cell-based; conditions: pERK(Thr202/Tyr204) normalized with GAPDH, NCI-H358 cells, 3 hours; read-out: IC50
Outline: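 NCI-H358 cells were allowed to attach for 8-12 hours, then exposed to compounds for 3 hours at 0.5% DMSO final. After formaldehyde fixation and methanol permeabilization, phospho-ERK (Thr202/Tyr204) was detected by in-cell immunofluorescence and normalized to GAPDH; IC50 came from a 4-parameter fit of percent-of-DMSO values.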

[2] = pH 7.4, human whole blood diluted to 50% with PBS, 5 μM, 240-minute incubation, read-out: Compound Half-life

KRas G12C, sequence (P01116 1-188 isoform P01116-2 G12C): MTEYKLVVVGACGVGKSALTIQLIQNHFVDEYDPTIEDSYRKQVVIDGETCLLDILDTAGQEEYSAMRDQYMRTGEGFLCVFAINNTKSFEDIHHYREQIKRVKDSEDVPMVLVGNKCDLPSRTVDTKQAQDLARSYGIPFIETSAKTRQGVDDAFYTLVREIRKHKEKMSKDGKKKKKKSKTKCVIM

Row | Compound | half-life at 5 µM [1, 2] | pIC50 (KRas G12C) | half-life at 5 µM ([1]; pH 7.4, human whole blood, positive control, read-out: half life)
1 | Cc1cccc2cccc(N3CCc4c(nc(OC[C@@H]5CCCN5C)nc4N4CCN(C(=O)/C=C/CCl)[C@@H](CC#N)C4)C3)c12 [Example 498, 2-((S)-1-((E)-4-chlorobut-2-enoyl)-4-(7-(8-methylnaphthalen-1-yl)-2-(((S)-1-methylpyrrolidin-2-yl)methoxy)-5,6,7,8-tetrahydropyrido[3,4-d]pyrimidin-4-yl)piperazin-2-yl)acetonitrile] | > 33.3 h | 6.00 to 10.00 | –
2 | CN(C)C/C=C/C(=O)N1CCN(c2nc(OC[C@@H]3CCCN3C)nc3c2CCN(c2cccc4ccccc24)C3)C[C@@H]1CC#N [Example 235, 2-((S)-1-((E)-4-(dimethylamino)but-2-enoyl)-4-(2-(((S)-1-methylpyrrolidin-2-yl)methoxy)-7-(naphthalen-1-yl)-5,6,7,8-tetrahydropyrido[3,4-d]pyrimidin-4-yl)piperazin-2-yl)acetonitrile] | > 33.3 h | 6.00 to 10.00 | –
3 | Cc1cccc2cccc(N3CCc4c(nc(OC[C@@H]5CCCN5C)nc4N4CCN(C(=O)/C=C/C(F)F)[C@@H](CC#N)C4)C3)c12 [Example 495, 2-((S)-1-((E)-4,4-difluorobut-2-enoyl)-4-(7-(8-methylnaphthalen-1-yl)-2-(((S)-1-methylpyrrolidin-2-yl)methoxy)-5,6,7,8-tetrahydropyrido[3,4-d]pyrimidin-4-yl)piperazin-2-yl)acetonitrile] | 3.33 to 16.7 h | 6.00 to 10.00 | –
4 | Cc1cccc2cccc(N3CCc4c(nc(OC[C@H]5CCCN5C)nc4N4CCN(C(=O)/C=C/CF)[C@@H](CC#N)C4)C3)c12 [Example 579, 2-[(2S)-1-[(E)-4-Fluorobut-2-enoyl]-4-[7-(8-methyl-1-naphthyl)-2-[[(2R)-1-methylpyrrolidin-2-yl]methoxy]-6,8-dihydro-5H-pyrido[3,4-d]pyrimidin-4-yl]piperazin-2-yl]acetonitrile] | 16.7 to 33.3 h | 6.00 to 10.00 | –
5 | CN(C/C=C/C(=O)N1CCN(c2nc(OC[C@@H]3CCCN3C)nc3c2CCN(c2cccc4cccc(Cl)c24)C3)C[C@@H]1CC#N)CC(F)(F)F [Example 482, 2-[(2S)-4-[7-(8-chloro-1-naphthyl)-2-[[(2S)-1-methylpyrrolidin-2-yl]methoxy]-6,8-dihydro-5H-pyrido[3,4-d]pyrimidin-4-yl]-1-[(E)-4-[methyl(2,2,2-trifluoroethyl)amino]but-2-enoyl]piperazin-2-yl]acetonitrile] | > 33.3 h | 6.00 to 10.00 | –
6 | Cc1cccc2cccc(N3CCc4c(nc(OC[C@H]5CCCN5C)nc4N4CCN(C(=O)/C=C/CO)[C@@H](CC#N)C4)C3)c12 [Example 517, 2-((S)-1-((E)-4-hydroxybut-2-enoyl)-4-(7-(8-methylnaphthalen-1-yl)-2-(((R)-1-methylpyrrolidin-2-yl)methoxy)-5,6,7,8-tetrahydropyrido[3,4-d]pyrimidin-4-yl)piperazin-2-yl)acetonitrile] | 16.7 to 33.3 h | 6.00 to 10.00 | –
7 | Cc1cccc2cccc(N3CCc4c(nc(OC[C@@H]5CCCN5C)nc4N4CCN(C(=O)/C=C/CN5CC(F)C5)[C@@H](CC#N)C4)C3)c12 [Example 515, 2-[(2S)-1-[(E)-4-(3-fluoroazetidin-1-yl)but-2-enoyl]-4-[7-(8-methyl-1-naphthyl)-2-[[(2S)-1-methylpyrrolidin-2-yl]methoxy]-6,8-dihydro-5H-pyrido[3,4-d]pyrimidin-4-yl]piperazin-2-yl]acetonitrile] | > 33.3 h | – | –
8 | CC(C)[N+](C)(CCOC(=O)C1c2ccccc2Oc2ccccc21)C(C)C [Propantheline, reference compound] | ≤ 3.33 h | – | 1.63 h
9 | Cc1cccc2cccc(N3CCc4c(nc(OC[C@@H]5CCCN5C)nc4N4CCN(C(=O)/C=C\C#N)[C@@H](CC#N)C4)C3)c12 [Example 502, (Z)-4-((S)-2-(cyanomethyl)-4-(7-(8-methylnaphthalen-1-yl)-2-(((S)-1-methylpyrrolidin-2-yl)methoxy)-5,6,7,8-tetrahydropyrido[3,4-d]pyrimidin-4-yl)piperazin-1-yl)-4-oxobut-2-enenitrile] | 3.33 to 16.7 h | 6.00 to 10.00 | –

The remaining lines, values ahead:

Row | half-life at 5 µM [1, 2] | pIC50 (KRas G12C) | half-life at 5 µM ([1]; pH 7.4, human whole blood, positive control, read-out: half life) | Compound
10 | ≤ 3.33 h | 6.00 to 10.00 | – | CN1CCC[C@H]1COc1nc2c(c(N3CCN(C(=O)/C=C/C(F)(F)F)[C@@H](CC#N)C3)n1)CCN(c1cccc3cccc(Cl)c13)C2 [Example 490, 2-((S)-4-(7-(8-chloronaphthalen-1-yl)-2-(((S)-1-methylpyrrolidin-2-yl)methoxy)-5,6,7,8-tetrahydropyrido[3,4-d]pyrimidin-4-yl)-1-((E)-4,4,4-trifluorobut-2-enoyl)piperazin-2-yl)acetonitrile]
11 | 3.33 to 16.7 h | 6.00 to 10.00 | – | C=CC(=O)N1CCN(c2nc(OC[C@@H]3CCCN3C)nc3c2CCN(c2cccc4cccc(C)c24)C3)C[C@@H]1CC#N [Example 359, 2-[(2S)-4-[7-(8-methyl-1-naphthyl)-2-[[(2S)-1-methylpyrrolidin-2-yl]methoxy]-6,8-dihydro-5H-pyrido[3,4-d]pyrimidin-4-yl]-1-prop-2-enoyl-piperazin-2-yl]acetonitrile]
12 | > 33.3 h | 6.00 to 10.00 | – | CN1CCC[C@H]1COc1nc2c(c(N3CCN(C(=O)/C=C/CN4CC(F)C4)[C@@H](CC#N)C3)n1)CCN(c1cccc3cccc(Cl)c13)C2 [Example 481, 2-[(2S)-4-[7-(8-chloro-1-naphthyl)-2-[[(2S)-1-methylpyrrolidin-2-yl]methoxy]-6,8-dihydro-5H-pyrido[3,4-d]pyrimidin-4-yl]-1-[(E)-4-(3-fluoroazetidin-1-yl)but-2-enoyl]piperazin-2-yl]acetonitrile]
13 | ≤ 3.33 h | 6.00 to 10.00 | – | CN1CCC[C@H]1COc1nc2c(c(N3CCN(C(=O)/C=C/C(F)F)[C@@H](CC#N)C3)n1)CCN(c1cccc3cccc(Cl)c13)C2 [Example 484, 2-[(2S)-4-[7-(8-chloro-1-naphthyl)-2-[[(2S)-1-methylpyrrolidin-2-yl]methoxy]-6,8-dihydro-5H-pyrido[3,4-d]pyrimidin-4-yl]-1-[(E)-4,4-difluorobut-2-enoyl]piperazin-2-yl]acetonitrile]
14 | > 33.3 h | 6.00 to 10.00 | – | C=C(COC)C(=O)N1CCN(c2nc(OC[C@@H]3CCCN3C)nc3c2CCN(c2cccc4cccc(Cl)c24)C3)C[C@@H]1CC#N [Example 485, 2-[(2S)-4-[7-(8-chloro-1-naphthyl)-2-[[(2S)-1-methylpyrrolidin-2-yl]methoxy]-6,8-dihydro-5H-pyrido[3,4-d]pyrimidin-4-yl]-1-[2-(methoxymethyl)prop-2-enoyl]piperazin-2-yl]acetonitrile]
15 | 3.33 to 16.7 h | – | – | C=CC(=O)N1CCN(c2nc(OC[C@@H]3CCCN3C)nc3c2CCN(c2cccc4cccc(Cl)c24)C3)C[C@@H]1CC#N [Example 331, 2-[(2S)-4-[7-(8-chloro-1-naphthyl)-2-[[(2S)-1-methylpyrrolidin-2-yl]methoxy]-6,8-dihydro-5H-pyrido[3,4-d]pyrimidin-4-yl]-1-prop-2-enoyl-piperazin-2-yl]acetonitrile]
